{"source": "patent US20160374368A9", "about": "“Mimicking the Metabolic Effect of Caloric Restrictions by Administration of Glucose Anti-Metabolites to Enhance Positive Response in a Mammal” (The Iams Company, priority 2013, published 2016)", "key": {"hexokinase": {"system": "hexokinase", "details": "cited from earlier work"}, "[1]": {"details": "cited from earlier work"}, "isolated rat hepatocytes": {"system": "isolated rat hepatocytes", "details": "cited from earlier work"}, "rodents": {"system": "rodents", "details": "cited from earlier work"}, "Labrador Retrievers [2]": {"system": "Labrador Retrievers", "test": "Annual kennel assessment of affective behavior in dogs fed control diet or control diet+MH", "type": "in vivo", "text": "Annual kennel assessments (period of 5 years) have been conducted on dogs fed a control diet or a control diet+MH. This assessment included two cohorts of Labrador Retrievers. Cohort 1 included 39 neutered Labrador Retrievers, 12 male and 27 female, ranged in age from 5.1 to 8.2 years old at the beginning of the test-feeding period (mean age at the beginning of the study 6.7 years). Cohort 2 included 41 neutered Labrador Retrievers, 12 males and 29 females ranged in age from 2.0 to 6.1 years old at the beginning of the test feeding period (mean age at the beginning of the study 4.0 years). Each cohort was fed a control diet or a test diet where the only differences was inclusion of mHep-enriched avocado extract targeted to supply 2 mg/kg body weight of MH. All researchers, lab assistants, and assessors were blinded to the feeding groups. Dogs were assessed during August and September each year. Each scorer was instructed to operate independently. Trained assessors were categorized as either familiar or unfamiliar to the dogs. The familiar assessors were people that worked with the dogs on a regular basis. […] Each assessing group was comprised of a handler and two scorers. All dogs were assessed with three people in the room with at least one familiar scorer in each group. This created a total of three possible conditions: familiar handler, two familiar scorers (Fam/Fam); familiar handler, one unfamiliar scorer, one familiar scorer (Fam/Unfam); unfamiliar handler, one unfamiliar scorer, one familiar scorer (Unfam/Unfam). The behaviors are outlined in Table 1. Calculating score: Assessors were asked to score dogs on a scale from 1-5 including half scores. For the behavior items, a score of 1 signified “Fails To Do” while 5 signified “Excellent”. For the demeanor items, a score of 1 signified “Strongly” while a score of 5 signified “Not at All”. All necessary items were reverse scored to allow higher scores to indicate a more favorable score and lower score to indicate a less favorable score. The sums of the corresponding behavior and demeanor items were used to calculate the score for each of the two behavior components. These scores were used to compare changes across years and between groups. [table]"}, "Labrador Retrievers [3]": {"system": "Labrador Retrievers", "test": "Serum Trp:LNAA ratio in dogs fed control diet or control diet +MH (HPLC amino acid analysis)", "type": "in vivo", "details": "200 ppm MH in the diet", "text": "Brain serotonin is known to influence the mood. Serotonin is synthesized in the brain from tryptophan, which uptake into the brain is dependent on the plasma ratio of tryptophan to the sum of other large neutral amino acids (Trp/LNAA). Other large amino acids include leucine, isoleucine, valine, phenylalanmine and tyrosine. It is well accepted that carbohydrate rich diets increase this ration and protein rich diets decrease the ration, in other words, when there is decrease in insulin sensitivity and a greater glycemic response, greater Trp/LNAA ratios are expected. Blood samples for amino acid analysis were collected from a total of 51 dogs fed a control diet or a control diet +MH. The blood samples were collected from two cohorts of Labrador Retrievers. Cohort 1 included 19 neutered Labrador Retrievers, 5 male and 14 female, ranged in age from 12.6 to 15.7 years old at the time of sampling. Cohort 2 included 32 neutered Labrador Retrievers, 9 males and 23 females ranged in age from 8.3 to 12.5 years old at the time of sampling. Each cohort was fed similar a control diet or a test diet where the only differences was inclusion of mHep enriched avocado juice concentrate targeted to supply 200 ppm MH in the diet. The avocado juice concentrate was derived from whole fruit (flesh, peel and pit) avocados. […]"}, "[4]": {"details": "cited from earlier work", "remark": "listed apart in the source"}, "cats": {"system": "cats", "test": "Behavioural assessment of play motivation in cats (weighted swing door)", "type": "in vivo", "details": "vs same diets without MH", "text": "Twenty cats (N=20) of similar age (˜2.5 years), and split 10 female (5 lean and 5 moderately overweight) and 10 male (5 lean and 5 moderately overweight). To effectively test the effects of MH on energy metabolism dietary energy needs, intended to maintain weight, were provided equally between animals on a body weight basis; therefore, each cat received 45 kcal ME/kg body weight/d (females) and 50 kcal ME/kg body weight/d (males).\nFor two weeks prior to the initiation of the study cats were fed Iams® Original Chicken. Diets were presented in kibble form and cats were fed individually at 7:00 am each day and will be permitted 60 minutes to eat during food offerings. This feeding protocol were maintained throughout the entire study except on days in which fasted blood/calorimetry samples are obtained as cats were fed following the sampling period which was no later than 9:00 am. […]\nTwo walled stalls (each measuring: 100 cm W×100 cm L×75 cm H; Quenn City polymers, Dayton, Ohio), one classified as the start box and the other the goal box, each with a plexi-glass roof containing a 1 cm diameter hole in the center, were placed next to each other and connected via a swing door (23 cm W×18 cm H). […] Cats were assessed two times per dietary treatment on day 14 and again on day 37 at approximately 5 hrs post feeding. […]"}, "[5]": {"details": "injected, rats, cited from earlier work"}, "[6]": {"details": "injected into a rat; cited from earlier work"}, "[7]": {"details": "2 mg/kg body weight MH, vs control diet"}}, "data": [{"compound": "O=P(O)(O)OC[C@H]1OC[C@H](O)[C@@H](O)[C@@H]1O", "note": "[1,5-anhydro-D-glucitol-6-phosphate]", "values": [{"measurement": "inhibition of hexokinase", "setting": "hexokinase", "value": "allosteric (non-competitive) inhibitor of hexokinase"}]}, {"compound": "OC[C@H]1OC[C@H](O)[C@@H](O)[C@@H]1O", "note": "[1,5-Anhydro-D-Glucitol, 1,5-anhydro-D-glucitol]", "values": [{"measurement": "enzymatic conversion to the 6-phosphate", "setting": "hexokinase; compared with 2-deoxy-glucose", "value": "less efficient than that of 2-deoxy-glucose"}]}, {"compound": "CO[C@@H]([C@H](O)[C@H](O)CO)[C@@H](O)C=O", "note": "[3-O-methylglucose]", "values": [{"measurement": "metabolism of the analog", "setting": "[1]; in contrast with 2-deoxy-D-glucose", "value": "not metabolized"}, {"measurement": "responses to administration (prevention of glucose utilization as energy source) relative to 2-deoxyglucose", "setting": "[1]; rats", "value": "about seven times weaker than those to 2-deoxyglucose"}]}, {"compound": "OC[C@H]1O[C@H](CO)[C@@H](O)[C@@H]1O", "note": "[2,5-Anhydro-D-mannitol, 2,5-anhydro-D-mannitol]", "values": [{"measurement": "effect on glucose formation and utilization", "setting": "isolated rat hepatocytes", "value": "interfere in glucose formation and utilization"}]}, {"compound": "O=CC[C@@H](O)[C@H](O)[C@H](O)CO", "note": "[2-deoxy-D-glucose]", "values": [{"measurement": "side effects and toxicity", "setting": "rodents; high doses", "value": "significant untoward side effects and toxicity have been observed"}, {"measurement": "mimicking metabolic hallmarks of caloric restriction", "setting": "rodents; rodents, long-term, lower dose", "value": "can mimic some of the major metabolic hallmarks of caloric restriction and enhanced longevity, including reduced body temperature, weight loss, and lower fasting insulin levels"}]}, {"compound": "O=C(CO)[C@@H](O)[C@@H](O)[C@H](O)[C@H](O)CO", "note": "[mannoheptulose]", "values": [{"measurement": "comfort in new areas score", "setting": "Labrador Retrievers [2]; 2 mg/kg body weight MH, unfamiliar/unfamiliar condition, vs control diet", "value": "significantly better response"}, {"measurement": "score for ability to handle new areas", "setting": "Labrador Retrievers [2]; [7]", "value": "higher scores"}, {"measurement": "score for social interaction", "setting": "Labrador Retrievers [2]; [7]", "value": "higher scores"}, {"measurement": "social interaction score, difference between groups", "setting": "Labrador Retrievers [2]; fam/fam or unfam/unfam condition", "value": "not different"}, {"measurement": "Trp:LNAA concentrations, fasting vs 4 hrs post fed", "setting": "Labrador Retrievers [3]; Cohort 1 (older dogs), P>0.05", "value": "no differences"}, {"measurement": "Trp:LNAA concentrations, fasting vs 4 hrs post fed", "setting": "Labrador Retrievers [3]; old and young cohorts pooled", "value": "no differences"}, {"measurement": "mannoheptulose ingested appearing in urine", "setting": "[4]; after oral administration", "value": "About 5%"}, {"measurement": "safety of oral doses", "setting": "[4]; doses of 10 grams, humans, orally", "value": "safely administered"}, {"measurement": "motivation to play", "setting": "cats", "value": "significantly greater motivation to play"}, {"measurement": "remained in the body", "setting": "[5]; a day after the injection", "value": 5, "unit": "%"}, {"measurement": "excreted unchanged", "setting": "[5]", "value": 66, "unit": "%"}, {"measurement": "metabolized", "setting": "[5]", "value": 29, "unit": "%"}]}, {"compound": "O=C[C@H](O)[C@@H](O)[C@H](O)[C@H](S)CO", "note": "[5-Thioglucose, 5-thio-D-glucose]", "values": [{"measurement": "excreted unchanged in urine", "setting": "[6]", "value": 97, "unit": "%"}]}]}
